Measured values from patent US12460245B2, “Luciferase sequences utilizing infrared-emitting substrates to produce enhanced luminescence” (Promega Corporation, priority 2014, dated 2025).

Experiments:
[1] = target: T1, QuantiLum® Recombinant Luciferase (Photinus pyralis, UniProt P08659); assay: Spectral scan using Aka Lumine as substrate; assay type: biochemical; conditions: FIG. 19B
T1 construct: purchased Promega E1701
Excerpt: (§1) FIG. 19A and FIG. 19B illustrate the luminescence of CBR using Aka Lumine, PBI-4739 and PBI-4813 (FIG. 19A) and the spectral scan of QuantiLum® Recombinant Luciferase using Aka Lumine as substrate (FIG. 19B).

CBR [2] = assay: Luminescence of CBR using Aka Lumine, PBI-4739 and PBI-4813; assay type: biochemical, click beetle; conditions: FIG. 19A
Excerpt: as §1

CBR [3] = assay: Km titration in live HEK293T cells; assay type: cell-based, click beetle; conditions: 60 min at 37° C.
Method: HEK293T cells were plated at 15,000 cells/well into wells of 96-well white assay plates and grown overnight. A transfection mixture was made containing 13 μg of CBR DNA and 40 μL FuGENE® HD in a total volume of 620 μL OptiMEM. The mixture was incubated at room temperature for 10 min. The cells were then transfected, in triplicate, with 5 μL of transfection complex and grown overnight. […] The growth media from the transfected cells was removed and replaced with one of the 3× serial diluted substrate containing media. The cells were incubated 60 min at 37° C., and the cells were imaged on a ImageQuant CCD imager (FIG. 22).

[4] = target: T2, QuantiLum® luciferase (firefly) (Photinus pyralis, UniProt P08659); assay: Spectral scan of near-IR substrates with purified enzyme; assay type: biochemical; conditions: substrate 1 mM in Bright-Glo Assay buffer + 1 mM ATP
T2 construct: purchased Promega E1701
Method: Materials: The following were used in the Examples: Ultra-Glo™ Luciferase (Promega Cat. No. E140); QuantiLum® Recombinant Luciferase (Promega Cat. No. E1701); Click Beetle Red Luciferase (CBR; 0.5 mg/mL purified; Promega); Bright-Glo™ assay buffer (Promega Cat. No. E264A); PBI-4739 (Promega—See FIG. 1); and PBI-4813 (Promega—See FIG. 1).
Experimental Details. The substrates, PBI-4813 and PBI-4739, were diluted to 1 mM (final concentration) in Bright-Glo™ Assay buffer+1 mM ATP. 50 μL of substrate solution was added to 50 μL of Click Beetle Red, UltraGlo® or QuantiLum® purified enzyme (0.5 mg/mL diluted in DMEM+0.1% Prionex) in triplicate, and then the samples assayed using a Tecan M-1000 plate reader in spectral scan mode.
FIG. 2 provides the spectral data for Click Beetle Red Luciferase with PBI-4813 (A) and PBI-4739 (B), where the spectral maximum was 655 nm for PBI-4813 and 760 nm for PBI-4739. FIG. 3 provides the spectral data for UltraGlo® luciferase with PBI-4813 (A) and PBI-4739 (B), where the spectral maximum was 670 nm for PBI-4813 and 660 nm for PBI-4739. FIG. 4 provides the spectral data for QuantiLum® luciferase (firefly) with PBI-4813 (A) and PBI-4739 (B), where the spectral maximum was 680 nm for PBI-4813 and equal to or greater than 700 nm for PBI-4739.

cells = assay: Cell toxicity studies; assay type: cell-based; conditions: compared to D-luciferin
[5] = Solubility of the substrates; assay type: physicochemical; conditions: PBI-4739 compared with PBI-4813
ATG1240 = assay: Km titration in HEK293 cell lysates; assay type: biochemical, click beetle
Method: (§2) Some of the variants identified in Examples 2 and 3 were screened for their performance in mammalian cells. DNA was prepared by Plasmid.com. HEK293 and HeLa cells were plated into wells of a 24-well plate at 0.05×10^6 cells/mL and grown overnight at 37° C. with CO2. 2.2 μg variant DNA was mixed with 80 μL OptiMEM and 6.6 μL FuGENE® HD transfection reagent (Promega Corporation) and incubated at room temperature for 5 min. 25 μL of the DNA mixture was added to each well. After overnight incubation, the media was removed from the cells and 1 mL DPBS (Life Technologies) was added. […] Luminescence of the variants was normalized to the average of two CBR samples (FIG. 6 and FIG. 7). C. Km Titration. Cell lysates of ATG 1230 and ATG 1240 expressed in HEK293 cells were prepared as described in Example 4. The cell lysates were then diluted 1:10 in 0.3×PLB+0.1% Prionex. Dilutions (2×) of each substrate (PBI-4813 or PBI-4739) were prepared in Bright-Glo™ Assay buffer containing 1 mM ATP. 50 μL of diluted cell lysate was assayed with 50 μL of each substrate assay solution. Luminescence was detected on the GloMax® Discover (FIG. 12). […] Because the enzyme concentration is not known for the lysates of for live cell titrations, Vmax as expressed as a velocity is not possible. Instead, the relative Vmax calculates the maximum brightness for each lysate with different substrates.

CBR [6] = assay: Km titration in HEK293 cell lysates; assay type: biochemical, click beetle
Method: as §2

CBR [7] = assay: Km titration in live HeLa cells; assay type: cell-based, click beetle; conditions: 60 min at 37° C.
Method: HeLa cells were plated at 20,000 cells/well into wells of 96-well white assay plates and grown overnight. A transfection mixture was made containing 13 μg of CBR DNA and 40 μL FuGENE® HD in a total volume of 620 μL OptiMEM. The mixture was incubated at room temperature for 10 min. The cells were then transfected, in triplicate, with 5 μL of transfection complex and grown overnight. […] The growth media from the transfected cells was removed and replaced with one of the 3× serial diluted substrate containing media. The cells were incubated for 60 min at 37° C. Luminescence was detected on a GloMax®-Multi+luminometer (FIG. 21A and FIG. 21B).

ATG 1240 = assay: Mimicry of tissue attenuation using long pass filters, transfected HEK293T cells; assay type: cell-based, click beetle; conditions: HEK293T cells expressing ATG 1240; long pass filters
Method: A transfection complex was prepared by diluting ATG 1240 DNA or Luc2 DNA (pF4Ag-Luc2) to 100 ng/μL, and then 2× serial dilutions prepared in 50 ng/μL pGEM carrier DNA. 40 μL of the diluted DNA was the mixed with 160 μL phenol red free OptiMEM and 16 μL of FuGENE® HD and incubated for 20 min. 5 μL of each transfection complex was added to wells of a 96-well black assay plates and then 100 μL of diluted HEK293T cells (200,000/mL in DMEM+10% FBS) was added. The cells were grown overnight at 37° C. with CO2.
To assay the cells, 4 mM D-luciferin, 2 mM PBI-4813 and 2 mM PBI-4739 substrate solutions were prepared in DMEM+10% FBS. 100 μL of the D-luciferin solution was added to cells expressing Luc2 and ATG 1240, and 100 μL of PBI-4813 or PBI-4739 solution was added to ATG 1240 expressing cells. Samples were incubated for 10 min at 37° C., and luminescence detected on GloMax® Discover (heated to 37° C.) with no filter, 610 nm Long Pass (LP) filter, 665 nm LP filter, 695 nm LP filter, 720 nm LP filter or 760 nm LP filter.

[8] = Km in live cell (remark in Example 13); assay type: cell-based; conditions: enzyme not stated
[9] = Substrate inhibition of luciferase activity at high substrate concentration; assay type: biochemical
[10] = tested on: Click Beetle Red (CBR) mutant(s); assay: Light emission from Click Beetle Red mutant(s) with the red-shifted substrates; assay type: biochemical; conditions: PBI-4813 compared with PBI-4739

T2 sequence (P08659 whole entry): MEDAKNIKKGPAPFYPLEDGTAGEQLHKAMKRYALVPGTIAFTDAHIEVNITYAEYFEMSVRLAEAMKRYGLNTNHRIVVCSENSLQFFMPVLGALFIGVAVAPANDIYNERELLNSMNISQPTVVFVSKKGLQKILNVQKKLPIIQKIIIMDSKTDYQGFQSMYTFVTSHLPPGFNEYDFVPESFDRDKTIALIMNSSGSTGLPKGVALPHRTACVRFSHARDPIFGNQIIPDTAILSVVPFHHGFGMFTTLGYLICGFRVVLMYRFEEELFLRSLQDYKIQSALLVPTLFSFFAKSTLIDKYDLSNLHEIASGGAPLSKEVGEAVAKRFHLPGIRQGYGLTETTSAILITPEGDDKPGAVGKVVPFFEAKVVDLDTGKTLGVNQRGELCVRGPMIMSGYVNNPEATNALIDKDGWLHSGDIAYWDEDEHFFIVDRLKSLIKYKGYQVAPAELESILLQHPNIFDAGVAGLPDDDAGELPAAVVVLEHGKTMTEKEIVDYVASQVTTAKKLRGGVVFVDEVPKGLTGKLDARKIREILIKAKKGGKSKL
T1 sequence (P08659 whole entry): as above

Row | Compound | emission wavelength (less red) [1] | brightness (CBR [2]) | Km for CBR, lower relative to D-luciferin (CBR [3]) | spectral maximum with QuantiLum® luciferase (firefly) [4] | cell toxicity (cells) | solubility [5] | Km with ATG1240, lower than CBR with D-luciferin (ATG1240) | Km with CBR in the lysates, lower than CBR with D-luciferin (CBR [6]) | Km for CBR in live cells, lower than the Km for D-luciferin (CBR [7]) | luminescence of ATG 1240 at the greatest light attenuation (ATG 1240) | Km less than for D-luciferin in live cell [8] | substrate inhibition by the substrate [9] | brightness of light emission [10]
1 | CN(C)c1ccc(/C=C/C=C/C2=N[C@@H](C(=O)O)CS2)cc1 [Aka Lumine] | 675 nm | dimmer | – | – | – | – | – | – | – | – | – | – | –
2 | O=C(O)C1CSC(c2nc3ccc4cc(O)ccc4c3s2)=N1 (stereo not shown) [PBI-4739] | – | – | about 5 times | ≥ 700 nm | comparable non-toxicity to D-luciferin | less soluble | – | – | – | – | – | – | –
3 | Nc1ccc2c(ccc3nc(C4=NC(C(=O)O)CS4)sc32)c1 (stereo not shown) [PBI-4813] | – | – | about 23 times | 680 nm | comparable non-toxicity to D-luciferin | – | about 5 × | about 30 × | about 20 times | comparable | more than 10 times | possible substrate inhibition | brighter
